How the values were obtained:
[1] = target: hOXIR (orexin-1 receptor) (Homo sapiens, UniProt O43613); test: FLIPR Ca2+ Flux Assay, orexin-1 receptor (hOXIR FLIPR); assay type: cell-based; conditions: CHO cells expressing the orexin-1 receptor (method text: rat; table head: hOXIR); agonist 70 pM Ala-6,12 human orexin-A
Method: (§1) The utility of the compounds in accordance with the present invention as orexin receptor OX1R and/or OX2R antagonists may be readily determined without undue experimentation by methodology well known in the art, including the “FLIPR Ca^2+ Flux Assay” (Okumura et al., Biochem. Biophys. Res. Comm. 280:976-981, 2001). In a typical experiment the OX1 and OX2 receptor antagonistic activity of the compounds of the present invention was determined in accordance with the following experimental method. For intracellular calcium measurements, Chinese hamster ovary (CHO) cells expressing the rat orexin-1 receptor or the human orexin-2 receptor, are grown in Iscove's modified DMEM containing 2 mM L-glutamine, […], 1% hypoxanthine-thymidine supplement, 100 U/ml penicillin, 100 μg/ml streptomycin and 10% heat-inactivated fetal calf serum (FCS). The cells are seeded at 20,000 cells/well into Becton-Dickinson black 384-well clear bottom sterile plates coated with poly-D-lysine. All reagents were from GIBCO-Invitrogen Corp. The seeded plates are incubated overnight at 37° C. and 5% CO2. Ala-6,12 human orexin-A as the agonist is prepared as a 1 mM stock solution in 1% bovine serum albumin (BSA) and diluted in assay buffer (HBSS containing 20 mM HEPES, 0.1% BSA and 2.5 mM probenecid, pH7.4) for use in the assay at a final concentration of 70 pM. Test compounds are prepared as 10 mM stock solution in DMSO, then diluted in 384-well plates, first in DMSO, then assay buffer. On the day of the assay, cells are washed 3 times with 100 μl assay buffer and then incubated for 60 min (37° C., 5% CO2) in 60 μl assay buffer containing 1 μM Fluo-4AM ester, 0.02% pluronic acid, and 1% BSA. The dye loading solution is then aspirated and cells are washed 3 times with 100 μl assay buffer. 30 μl of that same buffer is left in each well. Within the Fluorescent Imaging Plate Reader (FLIPR, Molecular Devices), test compounds are added to the plate in a volume of 25 μl, incubated for 5 min and finally 25 μl of agonist is added. Fluorescence is measured for each well at 1 second intervals for 5 minutes and the height of each fluorescence peak is compared to the height of the fluorescence peak induced by 70 pM Ala-6,12 orexin-A with buffer in place of antagonist. For each antagonist, IC50 value (the concentration of compound needed to inhibit 50% of the agonist response) is determined. Alternatively, compound potency can be assessed by a radioligand binding assay (described in Bergman et. al. Bioorg. Med. Chem. Lett. 2008, 18, 1425-1430) in which the inhibition constant (Ki) is determined in membranes prepared from CHO cells expressing either the OX1 or OX2 receptor. The intrinsic orexin receptor antagonist activity of a compound which may be used in the present invention may be determined by these assays.

human orexin-2 receptor = human orexin-2 receptor (Homo sapiens (Human), UniProt O43614); test: FLIPR Ca2+ Flux Assay, orexin-2 receptor (hOX2R FLIPR); assay type: cell-based; conditions: CHO cells expressing the human orexin-2 receptor; agonist 70 pM Ala-6,12 human orexin-A
Method: as §1

human orexin-2 receptor, sequence (O43614 whole entry): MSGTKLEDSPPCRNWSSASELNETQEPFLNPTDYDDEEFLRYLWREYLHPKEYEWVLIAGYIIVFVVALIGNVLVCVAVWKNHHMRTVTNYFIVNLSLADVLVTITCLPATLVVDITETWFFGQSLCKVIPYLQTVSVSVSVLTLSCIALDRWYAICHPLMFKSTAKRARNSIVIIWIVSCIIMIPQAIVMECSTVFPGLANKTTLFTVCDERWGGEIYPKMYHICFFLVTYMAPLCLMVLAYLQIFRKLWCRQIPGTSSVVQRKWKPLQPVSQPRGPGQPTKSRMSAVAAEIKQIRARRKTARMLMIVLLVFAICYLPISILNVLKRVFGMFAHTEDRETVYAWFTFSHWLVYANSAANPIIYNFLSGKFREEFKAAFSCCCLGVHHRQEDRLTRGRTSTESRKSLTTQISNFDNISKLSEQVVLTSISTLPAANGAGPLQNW

SMILES | IC50 [1] | IC50 (human orexin-2 receptor)
C[C@@H]1CC[C@@H](n2ncc([C@H](O)C(F)(F)F)n2)CN1C(=O)c1ccccc1-n1nccn1 [Example 26, (2-(2H-1,2,3-triazol-2-yl)phenyl) ((2R,5R)-2-methyl-5-(4-((S)-2,2,2-trifluoro-1-hydroxyethyl)-2H-1,2,3-triazol-2-yl)piperidin-1-yl)methanone] | > 10000 nM | 86.7 nM
C[C@@H]1CC[C@@H](n2ncc([C@@H](O)C(F)(F)F)n2)CN1C(=O)c1ccccc1-n1nccn1 [Example 27, (2-(2H-1,2,3-triazol-2-yl)phenyl)((2R,5R)-2-methyl-5-(4-((R)-2,2,2-trifluoro-1-hydroxyethyl)-2H-1,2,3-triazol-2-yl)piperidin-1-yl)methanone] | 505 nM | 17.9 nM
C[C@@H]1CC[C@@H](n2ncc(-c3ccccc3)n2)CN1C(=O)c1ccccc1-n1nccn1 [Example 28, (2-(2H-1,2,3-triazol-2-yl)phenyl)((2R,5R)-2-methyl-5-(4-phenyl-2H-1,2,3-triazol-2-yl)piperidin-1-yl)methanone] | 54 nM | 69.7 nM
C[C@@H]1CC[C@@H](n2ncc(Br)n2)CN1C(=O)c1ccccc1-n1nccn1 [Example 29, (2-(2H-1,2,3-triazol-2-yl)phenyl)((2R,5R)-5-(4-bromo-2H-1,2,3-triazol-2-yl)-2-methylpiperidin-1-yl)methanone] | > 10000 nM | 362 nM
Cc1nc(-c2ccc(F)cc2C(=O)N2C[C@H](n3ncc(C(C)(C)O)n3)CC[C@H]2C)no1 [Example 30, (5-Fluoro-2-(5-methyl-1,2,4-oxadiazol-3-yl)phenyl)((2R,5R)-5-(4-(2-hydroxypropan-2-yl)-2H-1,2,3-triazol-2-yl)-2-methylpiperidin-1-yl)methanone] | > 10000 nM | 138 nM
C[C@@H]1CC[C@@H](n2ncc(C(C)(C)O)n2)CN1C(=O)c1cccc(F)c1-n1nccn1 [Example 31, 2-{2-[(3R,6R)-1-{[3-fluoro-2-(2H-1,2,3-triazol-2-yl)phenyl]carbonyl}-6-methylpiperidin-3-yl]-2H-1,2,3-triazol-4-yl}propan-2-ol] | > 10000 nM | 36.4 nM
C[C@@H]1CC[C@@H](n2ncc(C(C)(C)O)n2)CN1C(=O)c1sccc1-n1nccn1 [Example 32, 2-{2-[(3R,6R)-6-methyl-1-{[3-(2H-1,2,3-triazol-2-yl)thiophen-2-yl]carbonyl}piperidin-3-yl]-2H-1,2,3-triazol-4-yl}propan-2-ol] | > 10000 nM | 89.6 nM
C[C@@H]1CC[C@@H](n2ncc(C(C)(C)O)n2)CN1C(=O)c1ccsc1-n1nccn1 [Example 33, 2-{2-[(3R,6R)-6-methyl-1-{[2-(2H-1,2,3-triazol-2-yl)thiophen-3-yl]carbonyl}piperidin-3-yl]-2H-1,2,3-triazol-4-yl}propan-2-ol] | 2560 nM | 18.4 nM
C[C@@H]1CC[C@@H](n2ncc(C(C)(C)O)n2)CN1C(=O)c1ccccc1-n1ncnn1 [Example 34, 2-{2-[(3R,6R)-6-methyl-1-{[2-(2H-tetrazol-2-yl)phenyl]carbonyl}piperidin-3-yl]-2H-1,2,3-triazol-4-yl}propan-2-ol] | > 10000 nM | 36.8 nM
Cc1noc(-c2ccc(F)cc2C(=O)N2C[C@H](n3ncc(C(C)(C)O)n3)CC[C@H]2C)n1 [Example 35, 2-{2-[(3R,6R)-1-{[5-fluoro-2-(3-methyl-1,2,4-oxadiazol-5-yl)phenyl]carbonyl}-6-methylpiperidin-3-yl]-2H-1,2,3-triazol-4-yl}propan-2-ol] | > 10000 nM | 593 nM
Cc1noc(-c2ccccc2C(=O)N2C[C@H](n3ncc(C(C)(C)O)n3)CC[C@H]2C)n1 [Example 36, 2-{2-[(3R,6R)-6-methyl-1-{[2-(3-methyl-1,2,4-oxadiazol-5-yl)phenyl]carbonyl}piperidin-3-yl]-2H-1,2,3-triazol-4-yl}propan-2-ol] | > 10000 nM | 62.9 nM

From US10010539B2, “Pyrazole, triazole and tetrazole orexin receptor antagonists” (MERCK SHARP & DOHME CORP., priority 2014, dated 2018)
